Data reported in patent US20060110456A1, “Method for biocidal and/or biostatic treatment and compositions therefor” (NATIONAL UNIVERSITY OF SINGAPORE, priority 2004, published 2006).
≈ marks a conversion by molar mass, not a printed value. Where a name gives a salt, the structure may show the parent alone. Read-outs that look alike come from different tables or passages of the source.

Key:
[1] = test system: marine bacteria (ten strains); assay: Bio-adhesion assay (crystal violet microplate); assay type: cell-based, marine bacteria isolated from Singapore fouling communities; conditions: for Effect on bacterial adhesion: polystyrene or tissue culture surface as named in the value; for Effect of drugs on adhesion of bacteria: 50 μl of 125 μg ml^−1 drug + 200 μl bacteria, 2 hours
Experimental: The effect of pharmaceuticals on bacterial adhesion was analyzed using a modified microplate method adapted from Shea and Williamson (1990). This method consists of staining the attached bacteria with crystal violet, releasing the stain with sodium desoxycholate, and measuring the resulting absorbance of the crystal violet. The absorbance is proportional to the degree of bacterial adhesion to the surface.
Ten strains of bacteria (strain numbers 1, 4, 9, 14, 18, 20, 27, 28, 29 and 30) were chosen for this study. Flat bottom non-tissue culture treated polystyrene (hydrophobic, Falcon #351172) (referred to as polystyrene) and flat bottom tissue culture treated polystyrene (hydrophilic, Falcon #353072) microplates were used in the analyses. These two types of plates were chosen because they were sterile and offered two different kinds of surfaces to determine the adhesion preferences of the bacteria. Each test was done in duplicate. For the control and blank wells, 50 μl of sterile deionized water were added. For those wells that were to contain drugs, 50 μl of drugs at concentration of 125 μg ml^−1 were added. Then 200 μl of bacteria suspension in sterile seawater, whose absorbance had been adjusted to 0.6 at 600 nm using a spectrophotometer (Beckman), were added. Blanks contained 200 μl of sterile seawater.
The bacteria in suspension were allowed to attach for 2 hours at 28° C. Unattached cells were removed by pipetting out almost all trace of liquid and rinsed three times with 300 μl of sterile seawater each time. The attached cells were stained with 200 μl of crystal violet solution (0.1% w/v) in each well for 5 min. After removing the stain by pipetting, the wells were rinsed twice with 300 μl of sterile deionized water each time. Sodium desoxycholate (200 μl) solution (2% w/v) was then added to each well to extract the crystal violet from the stained cells for 10 min. The absorbance of the extracted solution was read at 590 nm using a microplate reader (Sunrise, Tecan, Switzerland).
The data were analyzed using T-test (Two-sample assuming unequal variances) to determine the significance of the absorbance values of each bacterial strain versus the blanks to determine whether there was adhesion, i.e. increase in absorbance. Each drug effect on adhesion was analyzed by comparing the absorbance of each bacterial strain minus the control blank versus bacteria in presence of drug minus the drug control. When the data is significant, there are bacterial cells attached to the surface in the control but in the presence of drugs, there is no attachment.

[2] = test system: Balanus amphitrite stage II naupliar larvae
Experimental: Pharmaceuticals from the respective manufacturers were treated in the following way. A pill containing a known amount of active ingredient (as stated in product information) was ground in a mortar and pestle and a suspension of 2 mg ml^−1 generated in de-ionized water. This stock solution is stored at −20° C. in 4 ml amber screw cap vials. For the bioassays, 250 ul of stock solution is added to 10 ml of 1 um filtered seawater. This suspension was then sonicated for 10 minutes. Serial dilutions of this 50 μg ml^−1 seawater solution, or suspension, with seawater was done to generate the required range of concentrations.
Stage II naupliar larvae used in tests were obtained from Balanus amphitrite adults collected from inter-tidal rock walls at Kranji mangrove, Singapore. Larvae were collected from a container of adults by attraction to a point source of light and transferred to 500 ml of fresh seawater. Next, larvae were re-concentrated with a fiber optic light and added to assays.
Duplicate assays were conducted in 2 ml micro-centrifuge tubes (Axygen MCT-200-C) in 1.5 ml of filtered seawater for 22 to 24 hours. The assays were repeated for confirmation. There were four controls (vehicle only, 0 μg ml^−1), and 2 tubes of each for each test concentration. The assay was initiated by addition of barnacle nauplii in 50 to 100 μl of seawater.
After 22 to 24 hours of incubation at 25-27° C., solutions containing test animals were transferred to a Bogorov tray and scored as living or dead. Moribund larvae were scored as dead. Results were confirmed by repeating the assay. […] If data were not appropriate for probit analysis, the LC50 was estimated from graphed data.

Bugula neritina larvae = assay: Bioassay against bryozoan larvae; assay type: in vivo; conditions: crude rank, best (1) to worst (8)
Experimental: Bugula neritina (Phylum Bryozoa, Class Gymnolaemata, Order Cheilostomatida) is a cosmopolitan species of bryozoan, commonly found in most marine fouling communities. The larvae are brooded in ovicells found on the stem of the colonies. When released, the larva will settle quickly on most surfaces, within a few minutes. At 24° C., the settled larvae forms the one-cell ancestrula, and after 48 hours, the lophophore has developed and extended for feeding.
Adult colonies of Bugula neritina were collected from fouling communities growing on the submerged pontoons on a floating fish farm located off Changi, Singapore. Adult animals were maintained in the open-circulation aquarium at St John's island marine laboratory, Singapore. The adults were kept in total darkness for 24 hours. On exposure to light, larvae were released after half an hour. […] Because the larvae will settle quickly, larvae were pipetted directly into test wells in 1 ml of seawater using a graduated glass pipette.
4 replicates were done for each treatment. After 24 hours, larvae were scored as settled, swimming or dead/deformed. The assay plates were usually kept for another 24 hours and checked again, to ascertain that the settled larvae had developed into viable colonies with lophophores. Two trials were repeated for each compound.
Bioassays were carried out using the method described above, in July 2003 during the peak spawning season for Bugula.

barnacle nauplii = assay: Toxicity of drugs under different light conditions and over time (stability in seawater); assay type: in vivo, Balanus amphitrite; conditions: 25 ug ml^−1 seawater suspension; for Change in toxicity on ageing in seawater, 12L:12D condition: 12 h light and 12 h dark; for Change in toxicity on ageing in seawater, 12L:12D condition / Change in toxicity on ageing in seawater, dark condition: after 4 weeks; for Effect of UV on drug toxicity to barnacle nauplii: UV for half an hour
Experimental: Preliminary experiments were carried out to examine the chemical stability of the drugs. 25 ug ml^−1 seawater suspensions of the drugs were prepared, in 3 replicates per condition, 3 replicate tubes containing 15 ml per test tube per prepared for each treatment type. The treatments consisted of: • i. Dark condition: tubes were wrapped in aluminium foil and kept in the dark at all times • ii. 12L:12D condition, where the tubes were subject incubated in a plant growth chamber with light regime of 12 hours light and 12 hours dark. • iii. UV treated tubes were subject to UV for half an hour. […] Sets (1) & (2) were tested at week 0, 1, 2 and after 4 weeks. “UV” set is only assayed after UV treatment. […] Effect of UV

[3] = cited from earlier work; for Solubility: in words
[4] = strain 1 (Rhodovulum), hydrophobic surface (untreated polystyrene)
[5] = barnacle nauplii, 22 to 24 hours, concentration that caused 50% mortality
[6] = strain 4 (Bacillus), hydrophilic surface (tissue culture treated polystyrene)
[7] = strain 4 (Bacillus), hydrophobic surface (untreated polystyrene)
[8] = strain 9 (Bacillus), hydrophobic surface (untreated polystyrene)

Row | SMILES | Effect on bacterial adhesion [1] | Effect of drugs on adhesion of bacteria [1, 4] | Effect of drugs on adhesion of bacteria ([1]; strain 20, hydrophobic surface (untreated polystyrene)) | LD50 ([2]; Balanus amphitrite, in vivo) | Toxicity to barnacle nauplii and cyprids ([2]; in vivo) | Prevention of settlement of Bugula larvae (Bugula neritina larvae) | Change in toxicity on ageing in seawater, 12L:12D condition (barnacle nauplii) | Solubility in water [3] | Solubility [3] | Effect of drugs on adhesion of bacteria ([1]; strain 1 (Rhodovulum), hydrophilic surface (tissue culture treated polystyrene)) | Effect of drugs on adhesion of bacteria ([1]; strain 14 (Vibrio), hydrophilic surface (tissue culture treated polystyrene)) | LD50 [2, 5] | Effect of drugs on adhesion of bacteria [1, 6] | Effect of drugs on adhesion of bacteria [1, 7] | Effect of drugs on adhesion of bacteria [1, 8] | Effect of drugs on adhesion of bacteria ([1]; strain 18 (Microbacterium), hydrophilic surface (tissue culture treated polystyrene)) | Effect of drugs on adhesion of bacteria ([1]; strain 27, hydrophobic surface (untreated polystyrene)) | Effect of UV on drug toxicity to barnacle nauplii (barnacle nauplii) | Change in toxicity on ageing in seawater, dark condition (barnacle nauplii) | Effect of drugs on adhesion of bacteria ([1]; strain 30, hydrophobic surface (untreated polystyrene))
1 | CCCCCCCCCC(=O)OC1(c2ccc(Cl)cc2)CCN(CCCC(=O)c2ccc(F)cc2)CC1 [HDL, haloperidol decanoate] | significant inhibition of adhesion in strain 1 and 20 | *** (*** p < 0.005) | * (Significantly less adhesion observed: * p < 0.05) | 252.68 ng/mL | toxic to barnacle nauplii and cyprids | 4 | increased in toxicity | 10 µg/mL (≈ 18.9 µM) | almost insoluble in water |  |  |  |  |  |  |  |  |  |  | 
2 | CN(C)C(=O)C(CCN1CCC(O)(c2ccc(Cl)cc2)CC1)(c1ccccc1)c1ccccc1 [IMD, Loperamide hydrochloride] | caused strain 1 to adhere to tissue culture surfaces | * (Significantly less adhesion observed: * p < 0.05) |  |  |  | 7 |  |  | slightly soluble in water | *incr adhesion | * (Significantly less adhesion observed: * p < 0.05) | 241.34 ng/mL |  |  |  |  |  |  |  | 
3 | CN1CCN(CCCN2c3ccccc3Sc3ccc(C(F)(F)F)cc32)CC1 [TFZ, Trifluoperazine hydrochloride] |  |  |  |  | very toxic to nauplii and cyprids | 2 | marked decrease in toxicity |  |  |  |  | 9.35 ng/mL | * (Significantly less adhesion observed: * p < 0.05) | *** (*** p < 0.005) | ** (** p < 0.01) | * (Significantly less adhesion observed: * p < 0.05) | *** (*** p < 0.005) | some increase in toxicity | appreciable decrease in toxicity | 
4 | CNCCC(Oc1ccc(C(F)(F)F)cc1)c1ccccc1 (stereo not drawn) [PZC, fluoxetine hydrochloride] |  | * (Significantly less adhesion observed: * p < 0.05) |  |  |  | 3 | did not show an appreciable change |  |  |  |  |  |  |  | * (Significantly less adhesion observed: * p < 0.05) |  |  | some increase in toxicity |  | 
5 | CN1CCN(CCCN2c3ccccc3Sc3ccc(Cl)cc32)CC1 [PCZ, prochlorperazine maleate] |  | * (Significantly less adhesion observed: * p < 0.05) |  |  | very toxic to nauplii and cyprids | 2 | marked decrease in toxicity |  |  |  |  | 3.54 ng/mL | * (Significantly less adhesion observed: * p < 0.05) | * (Significantly less adhesion observed: * p < 0.05) | * (Significantly less adhesion observed: * p < 0.05) |  |  |  | appreciable decrease in toxicity | * (Significantly less adhesion observed: * p < 0.05)
